# Data from patent US9169240B2, “Ketone linked benzothiazole inhibitors of endothelial lipase” (BRISTOL-MYERS SQUIBB COMPANY, priority 2012, dated 2015).
# Target: Endothelial lipase (EL) (Homo sapiens (Human), UniProt Q9Y5X9)
# Assay: Endothelial lipase (EL) activity assay with fluorescent substrate A10070 in DMPG vesicles
# Format: biochemical
# Procedure: Endothelial lipase activity was measured using a fluorescent substrate, A10070, (Invitrogen, CA) doped into an artificial vesicle containing DMPG (Avanti Polar Lipids) as the excipient. Vesicles were prepared by combining 285 μL of 1 mM DMPG in a 1:1 mixture of MeOH and CHCl3 with 15 μL of 1 mM A10070 in a 1:1 mixture of MeOH and CHCl3. The mixture was dried under nitrogen and resuspended in 150 μL of 50 mM HEPES pH 8.0 buffer containing 100 mM NaCl and 0.2 mM EDTA. The sample was allowed to sit at rt for 15 min and then was sonicated 3×4 mins on ice with a Branson Sonicator using duty cycle 1. This preparation provides vesicles with a mole fraction of 0.05 for the FRET substrate.
# The enzymatic assay was measured using white, opaque 96-well half area plates. Each well contained 60 μL of assay buffer (50 mM HEPES pH 8.0, 50 mM NaCl and 1 mM CaCl2) and 2 ul of a DMSO solution containing compound of interest. Conditioned media obtained from HT-1080 cells, which were transformed by RAGE technology (Athersys) to overexpress endogenous EL, was added and the reaction was allowed to incubate for 20 min at 37° C. with gentle agitation. The reaction was started by the addition of 20 μL of a 1:4 dilution of vesicles. The final total reaction volume was 100 μL. The reaction rates were measured on a Gemini plate reader with an excitation wavelength of 488 nm and an emission of 530 nm. Readings were taken every 20 seconds for 10 min with agitation between each reading. The slope of the linear portion of the readout was used to calculate the rate of the reaction.
# Sequence of Endothelial lipase (EL) (Q9Y5X9 21-500): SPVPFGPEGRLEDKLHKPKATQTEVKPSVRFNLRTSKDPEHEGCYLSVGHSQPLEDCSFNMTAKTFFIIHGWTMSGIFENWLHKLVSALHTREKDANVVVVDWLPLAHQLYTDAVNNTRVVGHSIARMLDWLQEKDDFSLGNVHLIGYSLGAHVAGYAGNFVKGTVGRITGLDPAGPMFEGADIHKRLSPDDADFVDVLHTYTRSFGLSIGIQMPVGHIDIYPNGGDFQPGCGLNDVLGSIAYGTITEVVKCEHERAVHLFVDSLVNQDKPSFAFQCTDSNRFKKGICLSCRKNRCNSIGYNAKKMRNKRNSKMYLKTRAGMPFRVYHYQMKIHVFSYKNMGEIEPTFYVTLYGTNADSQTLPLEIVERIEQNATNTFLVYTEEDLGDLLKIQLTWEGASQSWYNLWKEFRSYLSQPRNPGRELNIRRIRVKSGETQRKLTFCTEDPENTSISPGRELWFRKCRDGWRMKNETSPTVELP
row,Compound,IC50 [nM]
1,"CC1(Cc2nnc(C(=O)c3nc4ccc(-c5ccc(F)cc5)cc4s3)o2)NC(=O)NC1=O (stereo not shown) [Example 35, 5-((5-(6-(4-fluoro-phenyl)benzo[d]thiazole-2-carbonyl)-1,3,4-oxadiazol-2-yl)methyl)-5-methyl-imidazolidine-2,4-dione]",< 10
2,"CC(C)(C)OC(=O)CNc1nnc(C(=O)c2nc3ccc(-c4ccccc4)cc3s2)o1 [Example 67, tert-butyl 2-((5-(6-phenylbenzo[d]thiazole-2-carbonyl)-1,3,4-oxadiazol-2-yl)amino)acetate]",130
3,CC(C)(C)CN1CC(c2nnc(C(=O)c3nc4ccc(-c5ccccc5)cc4s3)o2)C1 [Example 42],20
4,"NC(=O)NCc1nnc(C(=O)c2nc3ccc(-c4ccccc4)cc3s2)o1 [Example 49, 1-((5-(6-Phenylbenzo[d]thiazole-2-carbonyl)-1,3,4-oxadiazol-2-yl)methyl)urea]",25
5,"O=C(c1nnc(N(Cc2ccccc2)[C@H]2CCNC2=O)o1)c1nc2ccc(-c3ccccc3)cc2s1 [Example 87, (S)-3-(Benzyl(5-(6-phenylbenzo[d]thiazole-2-carbonyl)-1,3,4-oxadiazol-2-yl)amino)pyrrolidin-2-one]",11
6,"O=C(c1nnc(N[C@H]2CCOC2=O)o1)c1nc2ccc(-c3ccccc3)cc2s1 [Example 57, (S)-3-((5-(6-phenylbenzo[d]thiazole-2-carbonyl)-1,3,4-oxadiazol-2-yl)amino)dihydrofuran-2(3H)-one]",22
7,"O=C(c1nnc(CCc2nc3ccccc3[nH]2)o1)c1nc2c(F)cc(-c3ccccc3)cc2s1 [Example 14, (5-(2-(1H-benzo[d]imidazol-2-yl)ethyl)-1,3,4-oxadiazol-2-yl)(4-fluoro-6-phenylbenzo[d]thiazol-2-yl)methanone]",< 10
8,"O=C(c1nnc(N[C@H]2CCNC2=O)o1)c1nc2ccc(-c3ccccc3)cc2s1 [Example 53, (S)-3-((5-(6-phenylbenzo[d]thiazole-2-carbonyl)-1,3,4-oxadiazol-2-yl)amino)pyrrolidin-2-one]",< 10
9,"O=C(c1nnc(N(CC(F)(F)F)[C@H]2CCNC2=O)o1)c1nc2ccc(-c3ccccc3)cc2s1 [Example 84, (S)-3-((5-(6-Phenylbenzo[d]thiazole-2-carbonyl)-1,3,4-oxadiazol-2-yl)(2,2,2-trifluoroethyl)amino)pyrrolidin-2-one]",< 10
10,"CC1(Cc2nnc(C(=O)c3nc4ccc(-c5ccccc5)cc4s3)o2)NC(=O)NC1=O (stereo not shown) [Example 34, 5-methyl-5-((5-(6-phenylbenzo[d]thiazole-2-carbonyl)-1,3,4-oxadiazol-2-yl)methyl)-imidazol-idine-2,4-dione]",< 10
11,"CN(c1nnc(C(=O)c2nc3ccc(-c4ccccc4)cc3s2)o1)[C@H]1CCNC1=O [Example 86, (S)-3-(Methyl(5-(6-phenylbenzo[d]thiazole-2-carbonyl)-1,3,4-oxadiazol-2-yl)amino)pyrrolidin-2-one]",101
12,"CC(C)N1C(=O)NC(C)(Cc2nnc(C(=O)c3nc4ccc(-c5ccccc5)cc4s3)o2)C1=O (stereo not shown) [Example 39, 3-isopropyl-5-methyl-5-((5-(6-phenylbenzo-[d]thiazole-2-carbonyl)-1,3,4-oxadiazol-2-yl)methyl)-imidazol-idine-2,4-dione]",< 10
13,"O=C(c1nnc(N2CC[C@H](OCc3ccccc3)C2)o1)c1nc2ccc(-c3ccccc3)cc2s1 [Example 81, (S)-(5-(3-(benzyloxy)pyrrolidin-1-yl)-1,3,4-oxadiazol-2-yl)(6-phenylbenzo[d]thiazol-2-yl)methanone]",490
